SMILES strings stand for the structures. pIC50: −log10 of the molar value. Like-named read-outs stand apart in the source and are kept apart here.

This assay deals with phospho-serine 2056 DNA-PK in HCT116 cells. In words: DNA-PK phosphorylation at serine 2056 (cellular), ELISA in bleomycin-treated HCT116 cells. In kind it is cell-based. The conditions noted are these: read-out: IC50 pDNA-PK. The procedure, abridged:
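Chemiluminescent ELISA read-out; phospho-specific signal normalised to total DNA-PKcs. Cells (HCT116) exposed 6 h to test compound plus 10 μM bleomycin to induce double-strand breaks; DMSO control served as blank.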

Where [1] appears, read: Homo sapiens, HCT-116, 6 h, cellular, HCT116 cells, 10 μM bleomycin, six hours.
The mark [2] stands for this setting: cellular DNA-PK phosphorylation at serine 2056, HCT116 cells.
Where [3] appears, read: Homo sapiens, HCT-116, cellular DNA-PK phosphorylation at serine 2056, HCT116 cells.
Where [4] appears, read: cellular, HCT116 cells, 10 μM bleomycin, six hours.
Where [5] appears, read: Homo sapiens, HCT-116, phospho-serine 2056 DNA-PK, bleomycin-treated HCT116 cells.
The mark [6] stands for this setting: Homo sapiens, HCT-116, phospho-serine 2056 DNA-PK, bleomycin-treated HCT116 cells, class symbols A-D.

Consider `OC(c1ccc(F)c(-c2ncnc3cc(N4CCOCC4)ccc23)c1)c1nc(Cl)cnc1Cl` (centres unmarked) [Example 35, (3,6-Dichloro-pyrazin-2-yl)-[4-fluoro-3-(7-morpholin-4-yl-quinazolin-4-yl)phenyl]-methanol], for which, under setting [1], the pIC50 is greater than 6.30.

As to `OC(c1cc(-c2ncnc3cc(N4CCOCC4)ccc23)c(F)cc1F)c1ncnc2ccoc12` (centres unmarked) [Example 445, [2,4-Difluoro-5-(7-morpholin-4-yl-quinazolin-4-yl)-phenyl]furo[3,2-d}-pyrimidin-4-yl-methanol], the negative logarithm of the IC50 (pIC50) under setting [2] is greater than 6.30.

Take `COc1cc(C(O)c2ccc(F)c(-c3ncnc4cc(N5CCOCC5)ccc34)c2)c(Cl)nn1` (centres unmarked) [Example 7, (3-Chloro-6-methoxy-pyridazin-4-yl)-[4-fluoro-3-(7-morpholin-4-yl-quinazolin-4-yl)phenyl]-methanol]: the pIC50 under setting [1] was greater than 6.30. As for `Cn1ncc2c(C(O)c3cc(-c4ncnc5cc(N6CCOCC6)ccc45)c(F)cc3F)ncnc21` (centres unmarked) [Example 403, [2,4-Difluoro-5-(7-morpholin-4-yl-quinazolin-4-yl)-phenyl]-(1-methyl-1H-pyrazolo[3,4-d}-pyrimidin-4-yl)-methanol], under setting [3], the pIC50 is 5.30 to 6.30. For `CN(C)c1ccc(C(O)c2ccc(F)c(-c3ncnc4cc(N5CCOCC5)ccc34)c2)nn1` (centres unmarked) [Example 68, (6-Dimethylamino-pyridazin-3-yl)-[4-fluoro-3-(7-morpholin-4-yl-quinazolin-4-yl)phenyl]-methanol], the pIC50 under setting [1] was 5.00 to 5.30.

With `OC(c1ccc(F)c(-c2ncnc3cc(N4CCOCC4)sc23)c1)c1nccnc1Cl` (single isomer, unassigned) [Example 24, (3-Chloro-pyrazin-2-yl)-[4-fluoro-3-(6-morpholin-4-yl-thieno-[3,2-d}pyrimidin-4-yl)-phenyl]methanol], the pIC50 under setting [4] was greater than 6.30. Turning to `NC(=O)C(c1ccc(F)c(-c2ncnc3cc(N4CCOCC4)ccc23)c1)c1c(F)cncc1F` (centres unmarked) [Example 321, 2-(3,5-Difluoro-pyridin-4-yl)-2-[4-fluoro-3-(7-morpholin-4-yl-quinazolin-4-yl)-phenyl]acetamide], the pIC50 under setting [5] was 5.30 to 6.30. As for `COc1cncnc1C(O)c1cc(-c2ncnc3cc(N4CCOCC4)ccc23)c(F)cc1F` (centres unmarked) [Example 448, [2,4-Difluoro-5-(7-morpholin-4-yl-quinazolin-4-yl)-phenyl]-(5-methoxy-pyrimidin-4-yl)-methanol], under setting [3], the pIC50 was 5.30 to 6.30.

For the molecule `OC(c1cc(-c2ncnc3cc(N4CCOCC4)ccc23)c(F)cc1F)c1nncc2ccsc12` (centres unmarked) [Example 342, [2,4-Difluoro-5-(7-morpholin-4-yl-quinazolin-4-yl)-phenyl]thieno[2,3-d}-pyridazin-7-yl-methanol], under setting [5], the pIC50 is greater than 6.30. Consider `OC(c1ccc(F)c(-c2ncnc3cc(N4CCOCC4)ccc23)c1)c1nccnc1N1CCCC1` (centres unmarked) [Example 14, [4-Fluoro-3-(7-morpholin-4-yl-quinazolin-4-yl)phenyl]-(3-pyrrolidin-1-yl-pyrazin-2-yl)methanol], for which the pIC50 under setting [1] was 5.30 to 6.30. Regarding `OC(c1ccc(F)c(-c2ncnc3cc(N4CCOCC4)ccc23)c1)c1c(Cl)cncc1Cl` (centres unmarked) [Example 17, (3,5-Dichloro-pyridin-4-yl)-[4-Fluoro-3-(7-morpholin-4-yl-quinazolin-4-yl)phenyl]-methanol], the pIC50 under setting [1] is 5.30 to 6.30.

For `Nc1nccnc1C(O)c1cc(-c2ncnc3cc(N4CCOCC4)ccc23)c(F)cc1Cl` (centres unmarked) [Example 117, (3-Amino-pyrazin-2-yl)-[2-chloro-4-fluoro-5-(7-morpholin-4-yl-quinazolin-4-yl)-phenyl]methanol], under setting [6], the pIC50 is 5.30 to 6.30. Still for that read-out and setting: under `OCCOc1nccnc1C(O)c1ccc(F)c(-c2ncnc3cc(N4CCOCC4)ccc23)c1` (centres unmarked) [Example 105, 2-(3-{[4-fluoro-3-(7-morpholin-4-yl-quinazolin-4-yl)-phenyl]hydroxy-methyl}pyrazin-2-yl-oxy)ethanol] stands 4.52 to 5.00. In the case of `OC(c1cc(-c2ncnc3cc(N4CCOCC4)ccc23)c(F)cc1F)c1nccnc1OC(F)F` (centres unmarked) [Example 450, (3-Difluoromethoxy-pyrazin-2-yl)-[2,4-difluoro-5-(7-morpholin-4-yl-quinazolin-4-yl)-phenyl]methanol], the pIC50 under setting [2] is 5.00 to 5.30. On to `OC(c1cccnn1)c1cc(-c2ncnc3cc(N4CCOCC4)ccc23)c(F)cc1F` (centres unmarked) [Example 48, [2,4-Difluoro-5-(7-morpholin-4-yl-quinazolin-4-yl)phenyl]-pyridazin-3-ylmethanol], for which, under setting [1], the pIC50 was 5.30 to 6.30. The same measure, in the same setting: under `Cc1nccnc1[C@H](O)c1ccc(F)c(-c2ncnc3cc(N4CCOCC4)ccc23)c1` [Example 83, (R)-[4-Fluoro-3-(7-morpholin-4-yl-quinazolin-4-yl)-phenyl]-(3-methyl-pyrazin-2-yl)methanol] stands greater than 6.30. Take `NC(=O)C(c1cccnc1)c1ccc(F)c(-c2ncnc3cc(N4CCOCC4)ccc23)c1` (centres unmarked) [Example 295, 2-[4-Fluoro-3-(7-morpholin-4-yl-quinazolin-4-yl)-phenyl]-2-pyridin-3-ylacetamide]: the pIC50 under setting [5] was 4.52 to 5.00. For `Cc1cnnc(C(O)c2cc(-c3ncnc4cc(N5CCOCC5)ccc34)c(F)cc2Cl)c1` (centres unmarked) [Example 46, [2-Chloro-4-fluoro-5-(7-morpholin-4-yl-quinazolin-4-yl)phenyl]-(5-methylpyridazin-3-yl)methanol], the pIC50 under setting [1] is 5.00 to 5.30.

With `Cc1nccnc1C(C(N)=O)c1cc(-c2ncnc3cc(N4CCOCC4)ccc23)c(F)cc1Cl` (centres unmarked) [Example 324, 2-[2-Chloro-4-fluoro-5-(7-morpholin-4-yl-quinazolin-4-yl)-phenyl]-2-(3-methyl-pyrazin-2-yl)-acetamide], the pIC50 under setting [5] is 5.30 to 6.30. As to `COc1ccc(C(O)c2cc(-c3nc(Cl)nc4cc(N5CCOCC5)ccc34)c(F)cc2Cl)nn1` (centres unmarked) [Example 132, [2-Chloro-5-(2-chloro-7-morpholin-4-yl-quinazolin-4-yl)-4-fluorophenyl]-(6-methoxy-pyridazin-3-yl)-methanol], under setting [6], the pIC50 was 5.30 to 6.30. For the molecule `COc1ccc([C@H](O)c2cc(-c3ncnc4cc(N5CCOCC5)ccc34)c(F)cc2Cl)nn1` [Example 135, (R)-[2-Chloro-4-fluoro-5-(7-morpholin-4-yl-quinazolin-4-yl)-phenyl]-(6-methoxy-pyridazin-3-yl)-methanol], under setting [6], the pIC50 was 4.52 to 5.00.

For `COc1ccc(C(C(N)=O)c2ccc(F)c(-c3ncnc4cc(N5CCOCC5)ccc34)c2)nn1` (centres unmarked) [Example 308, 2-[4-Fluoro-3-(7-morpholin-4-yl-quinazolin-4-yl)-phenyl]-2-(6-methoxypyridazin-3-yl)acetamide], the pIC50 under setting [5] is 4.52 to 5.00. With `Cc1cncnc1C(O)c1cc(-c2ncnc3cc(N4CCOCC4)ccc23)ccc1Cl` (centres unmarked) [Example 418, [2-Chloro-5-(7-morpholin-4-yl-quinazolin-4-yl)-phenyl]-(5-methyl-pyrimidin-4-yl)-methanol (Ena 1)], the pIC50 under setting [2] was 5.30 to 6.30. Consider `O=c1ccc(C(O)c2ccc(F)c(-c3ncnc4cc(N5CCOCC5)ccc34)c2)n[nH]1` (centres unmarked) [Example 76, 6-{[4-Fluoro-3-(7-morpholin-4-yl-quinazolin-4-yl)phenyl]-hydroxymethyl}-2H-pyridazin-3-one], for which the pIC50 under setting [1] was 5.30 to 6.30. Same read-out and setting: with `O=c1ccc(C(O)c2cc(-c3ncnc4cc(N5CCOCC5)ccc34)c(F)cc2Cl)nn1CCO` (centres unmarked) [Example 99, 6-{[2-Chloro-4-fluoro-5-(7-morpholin-4-yl-quinazolin-4-yl)phenyl]-hydroxymethyl}-2-(2-hydroxy-ethyl)-2H-pyridazin-3-one] the figure was 5.30 to 6.30. With `OC(c1ccc(F)c(-c2ncnc3cc(N4CCOCC4)ccc23)c1)c1ccc(OC(F)F)nn1` (centres unmarked) [Example 121, (6-Difluoro-methoxy-pyridazin-3-yl)-[4-fluoro-3-(7-morpholin-4-yl-quinazolin-4-yl)-phenyl]methanol], the pIC50 under setting [6] was 5.30 to 6.30.

With `COc1nccnc1C(O)c1cc(-c2ncnc3cc(N4CCOCC4)ccc23)c(F)cc1Cl` (centres unmarked) [Example 468, [2-Chloro-4-fluoro-5-(7-morpholin-4-yl-quinazolin-4-yl)-phenyl]-(3-methoxy-pyrazin-2-yl)-methanol], under setting [3], the pIC50 was greater than 6.30.

As for `[2H]C1([2H])OC([2H])([2H])C([2H])([2H])N(c2ccc3c(-c4cc(C(O)c5ccc(OC)nn5)c(Cl)cc4F)ncnc3c2)C1([2H])[2H]` (centres unmarked) [Example 239, [2-Chloro-4-fluoro-5-[7-(2,2,3,3,5,5,6,6-octadeuterio-morpholin-4-yl)quinazolin-4-yl]phenyl]-(6-methoxypyridazin-3-yl)methanol], where the note is “phospho-serine 2056 DNA-PK, bleomycin-treated HCT116 cells”, the pIC50 is 4.52 to 5.00. In the case of `NC(=O)C(c1ccc(F)c(-c2ncnc3cc(N4CCOCC4)ccc23)c1)c1ncnn2cccc12` (centres unmarked) [Example 299, 2-[4-Fluoro-3-(7-morpholin-4-yl-quinazolin-4-yl)-phenyl]-2-pyrrolo-[2,1-f][1,2,4]triazin-4-ylacetamide], the pIC50 under setting [5] is 4.52 to 5.00.

For `Cn1nc(C(O)c2cc(-c3ncnc4cc(N5CCOCC5)ccc34)c(F)cc2Cl)ccc1=O` (centres unmarked) [Example 45, 6-{[2-Chloro-4-fluoro-5-(7-morpholin-4-yl-quinazolin-4-yl)phenyl]-hydroxymethyl}-2-methyl-2H-pyridazin-3-one], the pIC50 under setting [4] was greater than 6.30. With `OC(c1nccs1)c1cc(-c2ncnc3cc(N4CCOCC4)ccc23)ccc1F` (centres unmarked) [Example 170, [2-Fluoro-5-(7-morpholin-4-yl-quinazolin-4-yl)-phenyl]thiazol-2-yl-methanol], the pIC50 under setting [6] is 5.00 to 5.30. Same read-out and setting: with `OC(c1ccc(F)c(-c2ncnc3cc(C4=CCOCC4)ccc23)c1)c1nccs1` (centres unmarked) [Example 139, {3-[7-(3,6-Dihydro-2H-pyran-4-yl)-quinazolin-4-yl]-4-fluoro-phenyl}-thiazol-2-ylmethanol] the figure was 4.52 to 5.00.

The values are drawn from patent US11065253B2, “Arylquinazolines” (Merck Patent GmbH, priority 2013, dated 2021).
